Test results published in US8685976B2, “Cell adhesion promoting agent and method of promoting cell adhesion” (Kyoto University, priority 2008, dated 2014).

Columns and labels:
HepG2 cells [1] = assay: Cell adhesion assay by addition, HepG2 cells; format: cell-based; conditions: 0.6-60 μM in medium, 3-hour incubation, reattachment after trypsin treatment
Experimental: HepG2 cells were cultured in MEM supplemented with 10% fetal bovine serum (FBS) and 1% penicillin/streptomycin at 37° C. under 5% CO2. Jurkat cells were cultured in RPMI-1640 supplemented with 10% fetal bovine serum (FBS) and 1% penicillin/streptomycin at 37° C. under 5% CO2. For the screening of small molecule compounds, 100 μL of HepG2 suspension (2×10^5 cells/mL) was plated into 96-well plates supplied with each compound at a concentration of 20 μg/mL. After 3, 16, and 24 hours, the cells were subjected to microscopic observation to examine phenotypic changes. CHO K1 cells and CHO mutant cell lines were maintained in Ham's F-12 medium supplemented with 7.5% fetal bovine serum.
1 μL each of an aqueous solution of adhesamine (1), Type I collagen, poly-L-lysine hydrochloride, poly-L-ornithine hydrobromide, and fibronectin at a concentration of 50, 500, and 5000 μg/ml, was added to 96-well plate. […] After 3-hour incubation at 37° C., non-adherent cells were removed by washing each well with PBS three times, and the attached cells were counted with a Neubauer counting chamber (Digital Bio). […] […] Each assay was conducted in triplicate, and the means and standard derivations were calculated. […]

Jurkat cells [2] = assay: Cell adhesion assay by addition, Jurkat cells; format: cell-based, human
Experimental: 1 μL each of an aqueous solution of adhesamine (1), Type I collagen, poly-L-lysine hydrochloride, poly-L-ornithine hydrobromide, and fibronectin at a concentration of 50, 500, and 5000 μg/ml, was added to 96-well plate. 100 μL of HepG2 suspension (4×10^5 cells/mL) was added to each well. After 3-hour incubation at 37° C., non-adherent cells were removed by washing each well with PBS three times, and the attached cells were counted with a Neubauer counting chamber (Digital Bio). For Jurkat cells, 100 μL of cell suspension was added to each well at a density of 1×10^6 cells/ml. After 5-hour incubation at 37° C., non-adhered cells were removed by washing each well with PBS twice, and the attached cells were counted with a Neubauer counting chamber (Digital Bio). To calculate adhesion rates, firstly seeded cell numbers were assigned a value of 100%. As control tests, the same tests were conducted using wells supplied with only 1 μL of DMSO. Each assay was conducted in triplicate, and the means and standard derivations were calculated.
The comparison between adhesamine and its derivatives regarding cell adhesion promotion activity was conducted using Jurkat cells by way of reagent addition assay. 1 μL each of DMSO solutions of the compounds having concentrations of 60, 600, and 6000 μM were added to 96-well plates. The wells were supplied with 100 μL each of Jurkat cell suspensions (1×10^6 cells/mL). After 5-hour incubation at 37° C., non-adhered cells were removed by washing each well with PBS twice, and the attached cells were counted with a Neubauer counting chamber (Digital Bio). To calculate adhesion rates, firstly seeded cell numbers were assigned a value of 100%. As control tests, the same tests were conducted using well plates supplied with only 1 μL of DMSO. Each assay was conducted in triplicate, and the means and standard derivations were calculated.
However, since HepG2 cells have an intrinsic propensity to adhere to plastic tissue-culture plates, a test was conducted to determine whether the same effect was also obtained in the Jurkat cell line and human T-lymphocytes that are floating cells. Remarkably, 30% and 60% of the Jurkat cells attached to a culture plate in the presence of 6 and 60 μM of adhesamine, respectively (FIG. 1D). Removal of adhesamine by washing the plate twice with PBS detached the cells. 93% of Jurkat cells were released from the surface of a culture plate 24 hour after washing (FIG. 2). […] Simply adding adhesamine to the medium promoted adhesion of Jurkat cells onto culture plates, but not to each other.

HepG2 cells [3] = assay: Cell growth assay (WST-8), HepG2; format: cell-based
Experimental: (§1) In (A) and (B), the cell growth was determined at 24, 48, and 72 hours after the addition of adhesamine (1) (6 μM). The cell growth in the presence of 1% (v/v) DMSO was assigned a value of 100%. The data shown are means±SD for a minimum of three experiments. (C) to (F) show the rearrangement of actin filaments in HepG2 and Jurkat cells in the presence of adhesamine (6 μM). Brightfield images (C and D) and confocal images (E and F) are shown. HepG2 (C and E) or Jurkat (D and F) cells were plated for 5 hours or 3 hours, respectively, and actin cytoskeletal was visualized using rhodamine-labeled phalloidin.
1 μL DMSO solution of adhesamine (1) was added to 96-well plate at a concentration of 600 μM. […] After incubation for indicated time, the cell viability was measured using Cell Counting Kit-8 (Dojindo Molecular Technologies, Inc., Gaithersburg, Md.), which contains a tetrazolium salt (WST-8) that produces a water-soluble formazan dye by NADH dehydrogenases in living cells. […] The optical density (OD) of the solution was read by a microplate reader, using a test wavelength at 450 nm and a reference wavelength at 650 nm. […] Each assay was conducted in triplicate, and the means and standard derivations were calculated for a minimum of three independent experiments.

Jurkat cells [4] = assay: Visualization of actin cytoskeleton with rhodamine-conjugated phalloidin, Jurkat; format: cell-based, human; conditions: 6 μM
Experimental: as §1
Jurkat or HepG2 cells were plated onto glass coverslips in the presence of adhesamine (6 μM). They were fixed after 5 or 3 hours, respectively, with 4% paraformaldehyde for 20 minutes. The cell membrane was permeabilized by 5-min treatment with 0.1% Triton X-100 (in PBS). Samples were washed twice with PBS, and actin cytoskeleton was visualized with rhodamine-conjugated phalloidin according to the manufacturer's instructions (Invitrogen). The cell images were captured with a Yokogawa CSU22 confocal fluorescence microscope with 588-nm laser excitation.

`CSc1nc(Cl)c(C=O)c(N2CC[N+]3(CC2)CC[N+]2(CCN(c4nc(SC)nc(Cl)c4C=O)CC2)CC3)n1` [adhesamine] was tested, and the “enhancement of the adhesion of HepG2 cells” value (HepG2 cells [1]) was “up to twofold”, the “Jurkat cells attached to a culture plate” value (Jurkat cells [2]; 6 μM in medium) was 30% and the “Jurkat cells attached to a culture plate” value (Jurkat cells [2]; 60 μM in medium) was 60%. The “cell attachment on addition to the medium, compared with coating reagents” value (Jurkat cells [2]; FIG. 12) was “significantly greater attachment than addition of the other coating reagents”, the cell-cell adhesion (Jurkat cells [2]; added to the medium) was “did not induce” and the cytotoxicity (HepG2 cells [3]; HepG2, 6 μM) was “no obvious cytotoxicity”. For the same molecule, the “growth of the cells” value (HepG2 cells [3]; HepG2, 6 μM, 24, 48, 72 hours, vs 1% DMSO) was “slightly enhanced” and the “actin cytoskeleton structure in adhered cells” value (Jurkat cells [4]) was “well-organized cortical actin structure”.
